Reference: patent US20170226139A1, “CRYSTALLINE SALTS OF (Z)-O-OCTADEC-9-EN-1-YL O,O-DIHYDROGEN PHOSPHOROTHIOATE” (priority 2013, published 2017)
Read-outs that look alike come from different tables or passages of the source.

Assays:
[1] = Single subcutaneous dose pharmacokinetics in irradiated and unirradiated mice; assay type: in vivo, C57BL/6 mice; settings: single SC dose 1 mg/kg, 1 mg/kg; for AUC(0-inf): read-out: AUCINF_obs
Source text: We performed a randomized, open-label, single-dose, four-arm, subcutaneously-administered, study of the pharmacokinetics of Rx100.Ammonia and Rx100.Lysine in irradiated and unirradiated C57BL/6 mice to evaluate the effect of salt form and irradiation on extravascular pharmacokinetics. The purpose of this study was to evaluate the pharmacokinetic parameters for two salt forms of Rx100 (Lysine and Ammonia) in healthy and PB irradiated (IR) mice when administered as a single dose. Each animal received a 1 mg/kg dose of Rx100.Lysine or Rx100.Ammonia. The animals receiving Rx100.Lysine or Rx100.Ammonia after irradiation were dosed 26±2 hours after irradiation and sampling times are relative to the time of test article dosing.
More specifically, randomized, acclimated, C57BL/6 mice were administered Rx100.Lysine or Rx100.Ammonia (10 mM L-histidine in sterile water for injection, or 1% ethanol, 2% propylene glycol in PBS, respectively) as a single dose as indicated in Table 25.
Blood was collected from 4 male and 4 female mice via cardiac puncture at pre-defined time points relative to test article dosing (0.5, 1, 2, 4, 6, 8, 12, 18, 24, and 48 hours) and collected into micro plasma separator vials (BD Microtainer®) containing lithium heparin. Blood was maintained on ice until centrifugation and subsequent processing. Blood draws were a terminal procedure. Plasma was frozen at −80° C. until submitted for bioanalysis. Sample collection was completed in September 2012. Samples were transferred to Covance in December 2013, and sample analysis was complete in the first quarter of 2014.
A total of 160 male and 160 female C57BL/6 10-12 week old mice were used in this study. Animals were randomized with weight stratification into treatment groups and given a second ear tag. Animals were acclimated for 16-19 days (See below Table 26). Prior to irradiation or dosing (in non-irradiated groups), animals were weighed a second time which was the basis of the animal dose delivered.
TLDs were used for dosimetry and confirmation of the delivered dose. TLDs were analyzed by MD Anderson and have a +/−5% accuracy. A total of 19 dosimeters were used with a mean measured dose of 15.33±0.166 Gy.
Analysis was performed using qualified and validated Phoenix® WinNonlin® Software. The final data provided was imported into Phoenix® WinNonlin®. All data presented in the tables and figures within the results section of this report were generated using the validated Phoenix® WinNonlin® Software.

Male Sprague-Dawley rats = assay: Gastrointestinal system safety pharmacology (charcoal transit, gastric emptying); assay type: in vivo
Procedure: Male Sprague-Dawley rats (n=6/group) were administered Rx100.lysine as a single oral (gavage) doses of 0 (10 mM histidine in sterile water for Injection, USP), 1.81, 6.33, and 18.1 mg/kg and monitored for gastrointestinal parameters of transit time and gastric emptying. A fifth group was treated with the positive control material morphine sulfate. Two hours after treatment, animals received an oral gavage dose of a charcoal suspension. Animals were then sacrificed 20 minutes. Parameters evaluated included gastrointestinal transit time and gastric emptying. […] No abnormal observations were recorded. […] It was concluded that there were no adverse effects on the gastrointestinal tract in rats at doses of 1.81 mg/kg (gastric emptying) or 6.33 mg/kg (transit time).

[2] = + IR (irradiated mice), whole group (not split by gender), listed as Rx100.Lysine
[3] = healthy mice, F, listed as Rx100.Lysine
[4] = healthy mice, M, listed as Rx100.Lysine
[5] = healthy mice, whole group (not split by gender), listed as Rx100.Lysine
[6] = irradiated mice (15.6 Gy, dosed 26 ± 2 h after), F, listed as Rx100.Lysine
[7] = irradiated mice (15.6 Gy, dosed 26 ± 2 h after), M, listed as Rx100.Lysine
[8] = male, Sprague-Dawley, rat, in vivo, oral, 140 min

For `CCCCCCCC/C=C\CCCCCCCCOP(O)(O)=S` [Rx100.L-Lysine, (Z)—O-octadec-9-en-1-yl O,O-dihydrogen phosphorothioate], the Cmax ([1]; IR males, listed as Rx100.Lysine) was 299 ng/mL, the AUC(0-inf) ([1]; both sexes, C57BL/6, mouse, plasma, sc, + IR (irradiated mice), whole group (not split by gender)) was 1210 ng·h/mL and the Cmax ([1]; both sexes, C57BL/6, mouse, plasma, sc, + IR (irradiated mice), whole group (not split by gender), read-out: Cmax) was 323 ng/mL. The AUC(0-inf) ([1]; both sexes, C57BL/6, mouse, plasma, sc, healthy mice, whole group (not split by gender)) was 1660 ng·h/mL, the Cmax ([1]; both sexes, C57BL/6, mouse, plasma, sc, healthy mice, whole group (not split by gender), read-out: Cmax) was 512 ng/mL and the AUC ([1]; female, C57BL/6, mouse, plasma, sc, IR females, read-out: AUC) was 1240 ng·h/mL. The Cmax ([1]; female, C57BL/6, mouse, plasma, sc, IR females, read-out: Cmax) was 355 ng/mL, the Cmax ([1]; female, C57BL/6, mouse, plasma, sc, healthy females, read-out: Cmax) was 455 ng/mL and the AUC ([1]; female, C57BL/6, mouse, plasma, sc, healthy females, read-out: exposure (AUC)) was 1590 ng·h/mL. It also gave an AUC(0-inf) ([1]; female, C57BL/6, mouse, plasma, sc, healthy mice, F) of 1590 ng·h/mL, a Cmax ([1]; female, C57BL/6, mouse, plasma, sc, healthy mice, F, read-out: Cmax) of 454 ng/mL and an AUC(0-inf) ([1]; female, C57BL/6, mouse, plasma, sc, irradiated mice (15.6 Gy, dosed 26 ± 2 h after), F) of 1240 ng·h/mL. The Cmax ([1]; female, C57BL/6, mouse, plasma, sc, irradiated mice (15.6 Gy, dosed 26 ± 2 h after), F, read-out: Cmax) was 355 ng/mL, the AUC ([1]; male, C57BL/6, mouse, plasma, sc, IR males, read-out: AUC) was 1170 ng·h/mL and the AUC ([1]; male, C57BL/6, mouse, plasma, sc, healthy males, read-out: AUC) was 1750 ng·h/mL. For the same compound, the Cmax ([1]; male, C57BL/6, mouse, plasma, sc, healthy males, read-out: Cmax) was 570 ng/mL, the AUC(0-inf) ([1]; male, C57BL/6, mouse, plasma, sc, healthy mice, M) was 1750 ng·h/mL and the Cmax ([1]; male, C57BL/6, mouse, plasma, sc, healthy mice, M, read-out: Cmax) was 570 ng/mL. For the same compound, the AUC(0-inf) ([1]; male, C57BL/6, mouse, plasma, sc, irradiated mice (15.6 Gy, dosed 26 ± 2 h after), M) was 1170 ng·h/mL, the CLss_F [1, 2] was 13.822 mL/min/kg and the HL_Lambda_z [1, 2] was 1.44 h. The Vz_F [1, 2] was 1.72242 L/kg, the CLss_F [1, 3] was 10.462 mL/min/kg and the HL_Lambda_z [1, 3] was 1.84 h. For the same compound, the Vz_F [1, 3] was 1.66432 L/kg, the CLss_F [1, 4] was 9.5183 mL/min/kg and the HL_Lambda_z [1, 4] was 1.91 h. For the same compound, the Vz_F [1, 4] was 1.57087 L/kg, the CLss_F [1, 5] was 10.032 mL/min/kg and the HL_Lambda_z [1, 5] was 1.16 h. The Vz_F [1, 5] was 1.00622 L/kg, the CLss_F [1, 6] was 13.466 mL/min/kg and the HL_Lambda_z [1, 6] was 1.87 h. It also gave a Vz_F [1, 6] of 2.17384 L/kg, a CLss_F [1, 7] of 14.264 mL/min/kg and a Cmax [1, 7] of 298.75 ng/mL. For the same compound, the HL_Lambda_z [1, 7] was 1.32 h, the Vz_F [1, 7] was 1.62547 L/kg and the gastric emptying (Male Sprague-Dawley rats; 6.33 and 18.1 mg/kg, statistically significant only at 6.33 mg/kg) was “inhibited”. The “dose with no adverse effects on gastric emptying” value (Male Sprague-Dawley rats; [8]) was 1.81 mg/kg, the “dose with no adverse effects on transit time” value (Male Sprague-Dawley rats; [8]) was 6.33 mg/kg and the intestinal transit time (Male Sprague-Dawley rats; only at 18.1 mg/kg) was “increased”.
